In patent US20030216361A1, “Therapeutic compositions effective against gram positive bacteria” (priority 2000, published 2003):
In brackets after ≈: the same amount, converted by molar mass. Several values for one entry are separate records, joined by “and”; a condition that tells them apart may be missing. Equal values may be shown once. Read-outs that look alike come from different tables or passages of the source. Marks after values point to notes of the source that are not given here.

Tests used:
[1] = test system: Enterococcus faecalis 29212; experiment: Time-kill studies; assay type: cell-based; conditions: E. faecalis
Excerpt: (§1) This experiment illustrates a study of the time required (time-kill studies) for anti-microbial action of 3β-acetoxy-17β-(L-prolyl) amino-5α-androstane with certain gram positive bacteria.
(§2) Overnight cultures of Staphylococcus aureus 29213, Enterococcus faecalis 29212 and S. pneumoniae 6303 in MHII broth were inoculated into the same medium containing multiples of the broth macrodilution MIC of 3β-acetoxy-17β-(L-prolyl) amino-5α-androstane, or an equivalent volume of MeOH. Cultures were shaken at 37° C., and aliquots were aseptically removed at various times for dilution plating. Standard errors of the means were calculated from at least two experiments. The detection limit in these experiments was 10 CFU/ml.

[2] = test system: Staphylococcus aureus 29213; experiment: Time-kill studies; assay type: cell-based; conditions: S. aureus
Excerpt: as §1, §2

S. pneumoniae 6303 = experiment: Time-kill studies; assay type: cell-based, Streptococcus pneumoniae
Excerpt: as §1, §2

S. aureus ATCC 29213 = experiment: Effect of pH on broth macrodilution MICs; assay type: cell-based, Staphylococcus aureus
E. faecalis ATCC 29212 = experiment: Effect of pH on broth macrodilution MICs; assay type: cell-based, Enterococcus faecalis
[3] = test system: ATCC 14154, mouse virulent Staphylococcus aureus; experiment: Mouse model of topical Gram positive (Staphylococcus aureus) infection, infected suture; assay type: in vivo; conditions: mice; for Total colonies (number of Staph colonies per suture), individual animals: animals 1-10; for Total colonies (number of Staph colonies per suture), Ave.: average of 10 animals
Protocol: The model, as described in J. Gisby and J. Bryant, Antimicrobial Agents and Chemotherapy, February 2000, Vol. 44, No. 2, p 255-260, was used.
Fifty HSD:ICR male mice weighing 12-14 grams were ordered and allowed to acclimate 7 days. Mice were allocated to 5 groups of 10 animals each.
Group 1: infected suture placed, no treatment
Group 2: topical GRPB, 12.5 mg/kg BID×7 days
Group 3: topical GRPB, 25 mg/kg BID×7 days
Group 4: clean suture, no treatment
Group 5: enrofloxacin (Baytril) 10 mg/kg SQ SID×7 days
ATCC 14154, mouse virulent Staphylococcus aureus was grown in BHI broth overnight (12 hours) at 38 degrees C. Forty-five minutes prior to surgery, silk suture (2-0 size, 1 cm lengths w/swaged-on blunt needle) was soaked in the broth for 30 minutes, excess liquid was then removed by blotting with filter paper.
Mice were anesthetized with a ketamine (40 mg/kg), midazolam (2 mg/kg), and butorphanol (0.1 mg/kg) as a single IP injection.
The skin on the back of the mouse was prepared for aseptic surgery by clipping, cleansing with iodine scrub, and rinsing with alcohol. Mice were kept warm during surgery on a recirculating hot water blanket.
The suture was placed just under the skin on the dorsum of the animal using sterile instruments. The suture was knotted in the subcutaneous tissue to keep it in place. A half-thickness skin wound was made over the suture using the side of an 18 gauge needle as a scalpel.
Mice were allowed to recover in the home cage.
GRPB-10-15A was reconstituted as directed, using a minimal amount of methanol followed by dilution to required volume in sterile physiologic saline.
Injections were given using insulin syringes with 30 gauge needles. Topical administration was placed over the wound site. The mice were first treated 4 hours after surgery and were treated once or twice daily thereafter.
After 7 days of treatment animals were euthanized with IP pentobarbital euthanasia solution. The suture lengths were removed and placed in 2 mls phosphate buffered saline. Serial dilutions were performed and results reported as actual counts (number of Staph colonies per suture).

[4] = test system: Staphylococcus epidermidis Presque Isle 4653; experiment: Disk diffusion susceptibility testing
[5] = test system: Bacillus subtilis Presque Isle 620; experiment: Disk diffusion susceptibility testing
[6] = test system: Escherichia coli ATCC 25922; experiment: Disk diffusion susceptibility testing
[7] = test system: Cryptococcus neoformans ATCC 90112; experiment: Disk diffusion susceptibility testing
[8] = test system: Vancomycin-resistant Enterococcus spp.; experiment: Broth macrodilution MIC and MBC, clinical isolates
[9] = test system: Vancomycin-resistant E. faecalis; experiment: Broth macrodilution MIC and MBC, clinical isolates; conditions: 2 strains
[10] = test system: Vancomycin-resistant E. faecium; experiment: Broth macrodilution MIC and MBC, clinical isolates; conditions: 2 strains
Bacillus subtilis = experiment: Broth macrodilution MIC and MBC, clinical isolates; conditions: 4 strains
B. circulans = experiment: Broth macrodilution MIC and MBC, clinical isolates; conditions: clinical isolate, 1 strain
Gardnerella vaginalis = experiment: Broth macrodilution MIC and MBC, clinical isolates; conditions: 2 strains
[11] = test system: Enterococcus faecalis ATCC 29212; experiment: Broth macrodilution MIC and MBC, reference strains; conditions: ATCC29212
[12] = test system: Micrococcus luteus Presque Isle 456; experiment: Broth macrodilution MIC and MBC, reference strains
[13] = test system: Corynebacterium hoagi ATCC 7005; experiment: Broth macrodilution MIC and MBC, reference strains; conditions: ATCC7005
[14] = pH 6, range of 3 determinations
[15] = pH 7, range of 3 determinations
[16] = pH 8, range of 3 determinations
[17] = Group 2 low GRPB, topical 12.5 mg/kg BID×7 days
[18] = Group 3 high GRPB, topical 25 mg/kg BID×7 days

Compound: CC(=O)O[C@H]1CC[C@@]2(C)[C@@H](CC[C@@H]3[C@@H]2CC[C@]2(C)[C@@H](NC(=O)[C@@H]4CCCN4)CC[C@@H]32)C1
- Killing (time dependence) [1]: time-dependent
- time to 99.9% kill ([1]; eight times the MIC): 4 h
- survivors after 24 h ([1]; eight times the MIC): no survivors
- time to 99.9% kill ([1]; four times the MIC): 8 h
- survivors after 24 h ([1]; four times the MIC): no survivors
- time to 99.9% kill ([1]; two times the MIC): 8 h
- Killing (time dependence) [2]: time-dependent
- Killing (concentration dependence) (S. pneumoniae 6303): concentration-dependent
- Killing (time dependence) (S. pneumoniae 6303): time-dependent
- time to 99.9% kill (S. pneumoniae 6303; at the MIC): 6 h
- survivors after 24 h (S. pneumoniae 6303; one times the MIC): no survivors
- time to 99.9% kill (S. pneumoniae 6303; two times the MIC): 2 h
- survivors after 24 h (S. pneumoniae 6303; two times the MIC): no survivors
- MIC Range (S. aureus ATCC 29213; [14]): 8 to 16 µg/mL
- MIC Range (S. aureus ATCC 29213; [15]): 8 µg/mL (≈ 18.6 µM)
- MIC Range (S. aureus ATCC 29213; [16]): 4 µg/mL (≈ 9.29 µM)
- MIC Range (E. faecalis ATCC 29212; [14]): 32 µg/mL (≈ 74.3 µM)
- MIC Range (E. faecalis ATCC 29212; [15]): 8 to 16 µg/mL
- MIC Range (E. faecalis ATCC 29212; [16]): 4 to 8 µg/mL
- Total colonies (number of Staph colonies per suture), individual animals [3, 17]: 227 colonies per suture and 1993 colonies per suture and 832 colonies per suture and 317 colonies per suture and 1174 colonies per suture and 399 colonies per suture and 2523 colonies per suture and 968 colonies per suture and 739 colonies per suture and 1109 colonies per suture
- Total colonies (number of Staph colonies per suture), Ave. [3, 17]: 1028 colonies per suture
- Total colonies (number of Staph colonies per suture), individual animals [3, 18]: 890* colonies per suture and 328 colonies per suture and 483 colonies per suture and 289 colonies per suture and 626 colonies per suture and 572 colonies per suture and 456 colonies per suture and 344 colonies per suture and 565 colonies per suture and 362 colonies per suture
- Total colonies (number of Staph colonies per suture), Ave. [3, 18]: 492 colonies per suture
- MIC [4]: 6.25-12.5 μg/disk
- MIC [5]: 3.12-6.25 μg/disk
- MIC [6]: >100 μg/disk
- MIC [7]: >100 μg/disk
- MIC50 ([8]; Enterococcus): 8 µg/mL (≈ 18.6 µM)
- MIC90 ([8]; Enterococcus): 16 µg/mL (≈ 37.2 µM)
- MBC ([8]; Enterococcus, read-out: MBC 50%): 16 µg/mL (≈ 37.2 µM)
- MBC ([8]; Enterococcus, read-out: MBC 90%): > 64 µg/mL
- MIC Range ([8]; clinical isolates, 34 strains): 4 to 16 µg/mL
- share of strains with MBC/MIC ratios ≦2 ([8]; vancomycin-resistant Enterococcus spp.): 59%
- MBC Range [9]: 16 to 64 µg/mL
- MIC Range [9]: 8 to 16 µg/mL
- MBC Range [10]: 16 to 64 µg/mL
- MIC Range [10]: 8 to 16 µg/mL
- MIC Range (Bacillus subtilis): 8 µg/mL (≈ 18.6 µM)
- MBC Range (B. circulans): >64 µg/mL
- MIC Range (B. circulans): 16 µg/mL (≈ 37.2 µM)
- MBC Range (Gardnerella vaginalis): 8 µg/mL (≈ 18.6 µM)
- MIC Range (Gardnerella vaginalis; read after 48 h): 4 µg/mL (≈ 9.29 µM)
- MBC [11]: 32 µg/mL (≈ 74.3 µM)
- MIC [11]: 16 µg/mL (≈ 37.2 µM)
- MBC [12]: 64 µg/mL (≈ 149 µM)
- MIC [12]: 8 µg/mL (≈ 18.6 µM)
- MBC [13]: 32 µg/mL (≈ 74.3 µM)
- MIC [13]: 8 µg/mL (≈ 18.6 µM)
